Experimental data: patent US12091699B2, “Method for enhancing production of homeoprotein using inhibitor of lysosomal function” (Korea Advanced Institute of Science and Technology, priority 2021, dated 2024)

How the values were obtained:
Assay type in all cases: cell-based, human
[1] = test system: HeLa cell line that continuously produces the Otx2 homeoprotein; assay: Western blot analysis of Otx2 protein in cell lysate; settings: for expression level of the Otx2 protein in cell lysate: HeLa cells, western blot V5 (Otx2), FIG. 2B; for intracellular expression of the Otx2 protein: FIG. 2C
Procedure: In order to detect a homeoprotein present inside the cell, cells were lysed with a RIPA lysate (tertiary distilled water including 20 mM Tris-HCl, pH 7.5, 150 mM NaCl, 1 mM Na2EDTA, 1 mM EGTA, 1% NP-40, 1% sodium deoxycholate, 2.5 mM sodium pyrophosphate, 1 mM β-glycerophosphate, 1 mM Na3VO4, and 1 μg/ml leupeptin), and then proteins in the cells were separated according to molecular weight by performing electrophoresis (SDS-PAGE) on the cell lysate on a polyacrylamide gel including sodium dodecyl sulfate. The gel was induced to electrically bind to a PVDF membrane after protein separation to transfer the proteins to the membrane.
(§1) The V-ATPase inhibitor is a lysosomal ion channel inhibitor, and when cells are treated with the inhibitor, the pH in the lysosome is increased, so the protein degradation by the lysosome may be suppressed because the activity of the hydrolase present in the lysosome is inhibited.
(§2) Furthermore, the level of secreted Otx2 protein and the intracellular expression level of Otx2 protein when the HeLa cells were treated with the inhibitor of lysosomal function were analyzed by a dot blot analysis and a western blot analysis.
(§3) In addition, the present inventors treated the HeLa cells with bafilomycin D (BafD) together with bafilomycin A1 (BafA1) and concanamycin A (ConA), which are types of V-ATPase inhibitors, at different concentrations, and performed an analysis in the same manner as in FIG. 2B.

[2] = test system: HeLa cell line that continuously produces the Otx2 homeoprotein; assay: Immunocytochemical staining of intracellular Otx2 protein after treatment with inhibitor of lysosomal function; settings: HeLa cells, treated 16 hours, FIG. 2A, vehicle: almost exclusively in cell nucleus
Procedure: Cells were cultured on a cover glass in a cell incubator for 24 hours or more, and treated with a fixing solution (physiological saline including 4% paraformaldehyde) at room temperature for 20 minutes to fix the cells. Next, after the cells were treated with a permeability-imparting solution (physiological saline including 0.1% TWEEN-20 (polysorbate 20)) at room temperature for 10 minutes, the cells were treated with a blocking solution (physiological saline including 10% donkey serum) at room temperature for 1 hour. Subsequently, the cells were treated with a blocking solution including a primary antibody, cultured at 4° C. for 16 hours, then treated with a blocking solution 10 including a fluorophore-conjugated secondary antibody, and cultured at room temperature for 1 hour. Then, the fluorescence signals of the cells were analyzed under an Olympus FV1000 confocal microscope.
as §1, with “Accordingly, the present inventors treated a HeLa cell line that continuously produces the Otx2 homeoprotein manufactured in Example 2 with a V-ATPase inhibitor and a lysosomal pH enhancer as inhibitors of lysosomal function, and confirmed a change in secretion of the homeoprotein. The” for “The”
Thus, specifically, after the HeLa cells were treated with each of V-ATPase inhibitors bafilomycin A1 (BafA1) and concanamycin A (ConA), and a lysosomal pH enhancer chloroquine (CQ) at different concentrations for 16 hours, the intracellular expression of the Otx2 protein was observed by immunocytochemical staining.

[3] = test system: HeLa cell line that continuously produces the Otx2 homeoprotein; assay: Dot blot analysis of Otx2 protein secreted into cell culture solution; settings: FIG. 2C
Procedure: In order to detect a homeoprotein secreted to the outside of the cell, a cell culture solution including sodium heparin was allowed to pass through a polyvinylidene difluoride (PVDF) membrane. Next, the membrane was treated with a blocking solution (TBST including 5% skim milk) and allowed to react at room temperature for 1 hour. Subsequently, the membrane was treated with a blocking solution including a primary antibody, allowed to react at 4° C. for 16 hours, then treated with a horseradish peroxidase (HRP)-conjugated secondary antibody, and cultured at room temperature for 1 hour, and then the membrane was exposed to an X-ray photosensitive film by inducing an enzymatic reaction using an ECL solution as a substrate to thereby analyze the results.
as §1, with “Accordingly, the present inventors treated a HeLa cell line that continuously produces the Otx2 homeoprotein manufactured in Example 2 with a V-ATPase inhibitor and a lysosomal pH enhancer as inhibitors of lysosomal function, and confirmed a change in secretion of the homeoprotein. The” for “The”
as §2, §3

[4] = concentration increased from 20 nM to 200 nM
[5] = concentration increased from 5 nM to 50 nM

Compound	expression level of the Otx2 protein in cell lysate [1]	intracellular expression of the Otx2 protein [1, 4]	expression pattern (intracellular position) of Otx2 protein [2]	secretion of the Otx2 protein to the outside of the cell [3, 4]	intracellular expression of the Otx2 protein [1, 5]	secretion of the Otx2 protein to the outside of the cell [3, 5]
CO/C1=C\C(C)=C\[C@@H](C)[C@@H](O)[C@@H](C)C/C(C)=C/C=C/[C@H](OC)[C@@H]([C@@H](C)[C@@H](O)[C@H](C)[C@@]2(O)C[C@@H](O)[C@H](C)[C@@H](C(C)C)O2)OC1=O [BafA1, bafilomycin A1]	a big difference did not appear	increased	occurred even in the cytoplasm including the cell nucleus	increased	–	–
CCN(CC)CCCC(C)Nc1ccnc2cc(Cl)ccc12 (stereo not drawn) [CQ, chloroquine]	expressed at a higher level	–	occurred even in the cytoplasm including the cell nucleus	–	–	–
C/C=C/[C@H]1O[C@@](O)([C@@H](C)[C@H](O)[C@H](C)[C@H]2OC(=O)/C(OC)=C/C(C)=C/[C@@H](C)[C@@H](O)[C@@H](CC)[C@@H](O)[C@H](C)C/C(C)=C/C=C/[C@@H]2OC)C[C@@H](O[C@H]2C[C@@H](O)[C@H](OC(N)=O)[C@@H](C)O2)[C@@H]1C [ConA, concanamycin A]	expressed at a higher level	–	occurred even in the cytoplasm including the cell nucleus	–	increased	increased
bafilomycin D [BafD]	–	increased	–	increased	–	–
